Experimental findings from US20130115256A1, “METHODS FOR TREATING OR PREVENTING VASCULAR GRAFT FAILURE” (priority 2010, published 2013) are described below.

In assay [1] the target is T1, PRAK (Homo sapiens, UniProt Q8IW41).
T1 construct: purchased Millipore (KinaseProfiler service)
T1 sequence (Q8IW41 1-473): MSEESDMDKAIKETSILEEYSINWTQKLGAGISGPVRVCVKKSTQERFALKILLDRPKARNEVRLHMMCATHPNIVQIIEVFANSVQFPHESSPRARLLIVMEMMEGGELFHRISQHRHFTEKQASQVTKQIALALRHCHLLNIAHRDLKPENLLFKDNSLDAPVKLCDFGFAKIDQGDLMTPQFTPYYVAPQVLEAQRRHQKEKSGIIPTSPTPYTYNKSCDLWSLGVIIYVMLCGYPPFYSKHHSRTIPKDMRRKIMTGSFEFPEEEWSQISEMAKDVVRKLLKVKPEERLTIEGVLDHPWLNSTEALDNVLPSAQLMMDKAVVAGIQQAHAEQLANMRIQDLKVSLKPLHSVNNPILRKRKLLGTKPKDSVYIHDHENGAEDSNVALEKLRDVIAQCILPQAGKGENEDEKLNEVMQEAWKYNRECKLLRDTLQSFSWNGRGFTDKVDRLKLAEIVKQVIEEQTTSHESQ
As to the kind of experiment: PRAK radiometric kinase assay. The class given is biochemical. The conditions noted are these: MMI-0100 100 μM; remaining kinase activity. From the text:
(§1) A commercial radiometric assay service was used to test the specificity and potency of MMI-0100 ([…]; SEQ ID NO: 1) by measuring its half maximal inhibitory concentrations (IC50). This quantitative assay measures how much MK2 inhibitor (MMI-0100; […] (SEQ ID NO: 1)) is needed to inhibit 50% of a given biological process or component of a process (i.e., an enzyme, cell, or cell receptor). Specifically, in these assays, a positively charged substrate is phosphorylated with a radiolabeled phosphate group from an ATP if the kinase is not inhibited by an inhibitor peptide. The positively charged substrate then is attracted to a negatively charged filter membrane, quantified with a scintillation counter, and compared to a 100% activity control. ATP concentrations within 15 μM of the apparent Km for ATP were chosen since an ATP concentration near the Km may allow for the kinases to have the same relative amount of phosphorylation activity. The individual conditions for each radiometric assay are as follows. […]
(§2) IC50 values for inhibitor peptides were determined using Millipore's IC50 Profiler Express service. […]

The test system of assay [2] is JNK. Nature of the assay: JNK radiometric kinase assay. The class given is biochemical. The conditions noted are these: MMI-0100 100 μM; remaining kinase activity.
Excerpt: as §1, with “activity.” for “activity. The individual conditions for each radiometric assay are as follows.”
For the JNK (c-Jun N-terminal Kinase) radiometric assay, 5-10 mU of JNK was incubated with 50 mM Tris pH 7.5, 0.1 mM EGTA, 0.1% b-mercaptoethanol, 3 μM ATF2 (a substrate for JNK), 10 mM MgAcetate, and 10 μM of [y-^33P-ATP] in the final reaction volume of 25 μl. […] The washed P30 filtermat was dried and its radioactivity was measured by scintillation counter.
as §2

In assay [3] the test system is human coronary artery endothelial cells (HCAEC). Nature of the assay: TNF-α-induced IL-6 and IL-8 expression in HCAEC (ELISA). The class given is cell-based. The note with it: 0.5 mM MMI-0100, 24 hours after 6 hour TNF-α. As to the method: Primary human coronary artery endothelial cells (HCAEC) were cultured and seeded onto a 96-well plate, using methods described in the MTS proliferation assay above. Cells were again stimulated with 20 ng/ml of TNF-α for 6 hours and then treated with MMI-0100 (SEQ ID NO: 1) for approximately 24 hours. Supernatants were then collected and analyzed for drug effect on inflammatory cytokines.
IL-6 (Cat #: 900-K16; Lot #: 0909016) and IL-8 (Cat #: 900-K18; Lot #: 0209018) ELISA kits (Peprotech; Rocky Hill, N.J.) were used to measure levels of these cytokines from HCAEC supernatants following treatment with MMI-0100 ([…]; SEQ ID NO: 1). The Human IL-6 ELISA development kit contains the key components required for the quantitative measurement of natural and/or recombinant hIL-6 in a sandwich ELISA format within the range of 32-2000 pg/ml. Human IL-8 ELISA development kit contains the key components required for the quantitative measurement of natural and/or recombinant hIL-8 in a sandwich ELISA format within the range of 16-1000 pg/ml.
Briefly, 10 μl of supernatant was diluted with 90 μl of diluents; 3 replicates of each sample were used. Data were collected at 405 nm with correction at 650 nm on a plate reader. Each plate was monitored for 1 hour with readings taken every 5 minutes. Concentrations of IL-6 and IL-8 in test samples were determined by extrapolating from a standard curve. […]

As for YARAAARQARAKALARQLGVAA [MMI-0100], the “Percent Activity, PRAK” value in assay [1] amounted to 100%. Moreover, the “Percent Activity, JNK” value in assay [2] is listed as 92%. Further, in assay [3], the “TNF-α-induced IL-6 expression” value is “reduced the level of TNF-α-induced IL-6 expression to that of the untreated control” and the “TNF-α-induced IL-8 expression” value is “no effect”.
